Source: patent US11597717B2, “Substituted imidazoles as PLXDC2 ligands” (Landos Biopharma, Inc., priority 2020, dated 2023)

How the values were obtained:
CD4+ T cells = assay: Immunological screening in vitro in CD4+ T cells (flow cytometry); type: cell-based, C57BL/6 mice; settings: for significance of change in IFNγ/TNFα production relative to vehicle treated control: tested at 100 nM and 1 μM, P<0.05; for reduction in IFNγ production: 24 h, anti-CD3/CD28, PMA/ionomycin last 6 h
Excerpt: (§1) Cell culture. Spleens were excised from C57BL/6 mice. Spleens were crushed between the frosted ends of microscope slides and filtered to provide a cellular suspension. Red blood cells were lysed through hypotonic lysis. Remaining cells were washed and filtered. CD4+ T cells were enriched within the suspension using magnetic sorting based negative selection. Cells were collected and plated within 96 well plates coated with anti-CD3/CD28 and cultured in the presence of PX-02, PX-04, PX-07, PX-08 and PX-09 at 0, 0.1 or 1 micromolar for 24 h. During the last 6 h of culture, cells were stimulated with phorbol 12-myristate-13-acetate (PMA) and ionomycin.
(§2) Immunological analysis. Cells were collected from 96 well plates and stained with a cocktail of antibodies for immunophenotyping by flow cytometry. Culture supernatant was collected and assayed for cytokine concentrations by cytometric bead array. Data was captured on a BD FACS Celesta and analyzed using FACSDiva.

[1] = system: CD4+ T cells deficient in PLXDC2; assay: Specificity test in PLXDC2 deficient CD4+ T cells; type: cell-based; settings: 100 nM or 1 μM; for IFNγ in the absence of PLXDC2: FIG. 4A; for TNFα in the absence of PLXDC2: FIG. 4B
Protocol: FIGS. 4A and 4B. Immunological validation of PX-04 and PX-07 specificity in CD4+ T cells. Percentages of IFNγ+(FIG. 4A) and TNFα+ (FIG. 4B) CD4+ T cells deficient in PLXDC2 were measured by flow cytometry after in vitro treatment of cells with PX compounds at concentrations of 0.1 and 1 micromolar. Statistical significance (P<0.05) is marked by asterisks.
as §1, §2
To determine the specificity of response to the PLXDC2 receptor, PX-04 and PX-07 were tested further in PLXDC2 deficient cells.

[2] = system: bone marrow-derived macrophages (BMDMs); assay: Immunological screening in vitro in LPS-challenged bone marrow-derived macrophages (qRT-PCR, Luminex); type: cell-based, C57BL/6 mice; settings: 0.1 and 1 micromolar, dose dependent; for IFNγ in the supernatant / IL-6 in the supernatant / TNF in the supernatant / concentration of IL-10 in the supernatant: Luminex, LPS 6 h; for IL-10 expression by RNA / expression of TNF by RNA: qRT-PCR, LPS 2 h
Protocol: Cell culture. Bone marrow was flushed from the femur and tibia of C57BL/6 mice. Bone marrow was then resuspended and filtered to provide a cellular suspension. Red blood cells were lysed through hypotonic lysis. Remaining cells were washed and filtered. Isolated cells were incubated in the presence of M-CSF for 7 days to differentiate cells into macrophages. Cells were harvested, plated within 24 well plates and cultured in the presence of PX-04 or PX-07 at 0, 0.1 or 1 micromolar for 12 h. During the last 2-6 h of culture, cells were stimulated with lipopolysaccharide. After stimulation for 2 h, cells were collected for the isolation of RNA. Gene expression was quantified by qRT-PCR. After stimulation for 6 h, supernatant was collected for detection of cytokines by Luminex.

mice challenged with DSS = assay: DSS model of colitis (acute IBD model); type: in vivo
Protocol: DSS model. Mice were given DSS in drinking water for seven days to induce disruption of the epithelial layer. At project initiation, mice were 8 weeks of age and began dosing 24 hours after being placed on DSS. Mice were weighed and scored daily for symptoms of disease (diarrhea, rectal bleeding, rectal inflammation, overall behavior). PX-04 was prepared within a 0.5% methylcellulose (12-15 cP) solution. Dosage used was 20 mg/kg delivered once daily. Dosage was calculated based off mean body weights for each gender. Oral dosage was delivered by orogastric gavage of dosage in 0.2 mL volume. Flow Cytometry. Colons were collected into RPMI/FBS buffer containing collagenase (300 U/mL) and DNase (50 U/mL) for digestion. Tissues were digested for 60 minutes under stirring at 37° C. Resultant cellular suspensions were filtered through 100 μm strainers, centrifuged (300×g, 8 min), and washed in fresh RPMI. Following filtration of the resulting single cell suspensions, immune cells were purified by Percoll gradient of cell-containing 40% Percoll overlayed onto 70% Percoll solution. After centrifugation, interphase was collected and washed to obtain enriched colonic lamina propria cell fractions. Cells were labeled with mixtures of extracellular (CD45, CD3, CD4, CD8, CD19, NK1.1, CD25, F4/80, CD11b, Gr1, CX3CR1, CD64) and intracellular (Tbet, RORγT, FOXP3, IFNγ, IL17, IL10) antibodies in a sequential live staining in 96-well plates. Data was acquired using a FACS Celesta flow cytometer with FACSDiva software.

[3] = system: DBA/2 mice injected with STZ; assay: STZ model of diabetic nephropathy; type: in vivo; settings: daily oral gavage; for albumin/creatinine ratio in urine: 12 weeks of treatment
Protocol: STZ models. Streptozotocin (STZ) can be used to induce diabetes in both rats and mice. Mice were used for the assessment of nephropathy. DBA/2 mice were injected with 40 mg/kg STZ by intraperitoneal injection for 5 consecutive days. Mice were randomized to vehicle- or PX-04-treated arms after confirmation of diabetes on day 10 (n=12). PX-04 was administered daily for 12 weeks by oral gavage after a damage accrual stage. Separately, mice were randomized to vehicle- or PX-07-treated arms after confirmation of diabetes on day 10 (n=8). PX-07 was administered daily for 12 weeks by oral gavage after a damage accrual stage.
Kidney function. Kidney function was assessed by collection of urine and histological assessment of kidneys. Urine was assayed for albumin/creatinine ratio. Kidneys were scored using a composite scoring method (0-9) encompassing glomerular area, mesangial expansion, and renal fibrosis.

NZB/W F1 mice = assay: NZB/W F1 model of SLE; type: in vivo; settings: 10 mg/kg daily oral
Protocol: NZB/W F1 model. Twenty-four-week-old, female NZB/W F1 mice were randomized into vehicle or PX-04 treated arms based on baseline urine protein levels (n ═10). PX-04 was administered daily at 10 mg/kg for 12 weeks. Mice will be weighed on a weekly basis to update dosage formulation. Dosage will be calculated based off mean body weights.
Immunological analysis. Urine was collected for assay for protein content to test for kidney function at baseline, 6, and 12 weeks of treatment. Spleens were excised, crushed and filtered to provide a cellular suspension. Red blood cells were lysed. Cells were labeled with mixtures of extracellular (CD45, CD3, CD4) and intracellular (IL10) antibodies in a sequential live staining in 96-well plates in preparation for flow cytometry. Data was captured on a BD FACS Celesta and analyzed using FACSDiva.

[4] = system: rats with collagen-induced arthritis; assay: Collagen-induced arthritis in rats; type: in vivo, Lewis rats
Protocol: (§3) Models. Six-week-old C57Bl/6 mice were immunized with 200 μg of chicken collagen emulsified in complete Freund's adjuvant by intradermal injections at the base of the tail (n=8). Mice were treated with 5 mg/kg of PX-07 or vehicle daily for four weeks. Five- to six-week-old Lewis rats (n=8) were immunized with 200 μg of bovine collagen emulsified in incomplete Freund's adjuvant by intradermal injection into the base of the tail. A second boosting immunization was given after one week. PX-04 was administered daily at 2 or 20 mg/kg for 3 weeks.
(§4) Immunological analysis. Spleens were excised from mice and inguinal lymph nodes were excised from rats. Tissues were crushed and filtered to provide a cellular suspension. Red blood cells were lysed. Cells were labeled with mixtures of extracellular (CD45, CD3, CD4, CD8, B220, CD19, CD138, CD21, CD24, CD1d, CD11b, CD86, CD80) and intracellular (BCL6, IL21, IL10, TNF) antibodies in a sequential live staining in 96-well plates in preparation for flow cytometry. Data was captured on a BD FACS Celesta and analyzed using FACSDiva.

[5] = system: mice with collagen-induced arthritis; assay: Collagen-induced arthritis in mice; type: in vivo, C57Bl/6 mice; settings: 5 mg/kg daily oral, four weeks
Protocol: as §3, §4

[6] = 20 mg/kg oral, colonic lamina propria, day 7
[7] = 2 and 20 mg/kg daily oral, 3 weeks, relative to vehicle

SMILES | significance of change in IFNγ/TNFα production relative to vehicle treated control (CD4+ T cells) | reduction in IFNγ production (CD4+ T cells; 100 nM) [%] | reduction in IFNγ production (CD4+ T cells; 1 μM) [%] | IFNγ in the absence of PLXDC2 [1] | TNFα in the absence of PLXDC2 [1] | IFNγ in the supernatant [2] | IL-6 in the supernatant [2] | TNF in the supernatant [2] | concentration of IL-10 in the supernatant [2] | IL-10 expression by RNA [2] | expression of TNF by RNA [2] | albumin/creatinine ratio in urine [3] | also measured
O=C(Nc1ccccc1)c1nc(-c2cccc(Oc3ccccc3)c2)c[nH]1 [PX-02, N-Phenyl-4-(m-phenoxyphenyl)-1H-imidazole-2-carboxamide] | only induced significant changes at 1 μM | – | – | – | – | – | – | – | – | – | – | – | –
O=C(Nc1ccc2c(c1)COC2)c1ncc(-c2cccc(Oc3ccccc3)c2)[nH]1 [PX-04, N-(1,3-Dihydro-5-isobenzofuranyl)-5-(m-phenoxyphenyl)-1H-imidazole-2-carboxamide] | significant decrease at both tested concentrations | ~55 | ~80 | no difference from vehicle | no difference from vehicle | greatly suppressed | greatly suppressed | greatly suppressed | higher | slight increase | inhibited | significantly reduced | cumulative disease activity (mice challenged with DSS; 20 mg/kg once daily oral gavage, 7 days of DSS): decreased; Th17 cells in the colon (mice challenged with DSS; [6]): greatly decreased; proportion of CD4+ T cells with IFNγ production (mice challenged with DSS; [6]): lower proportion; proportion of NK cells with IFNγ production (mice challenged with DSS; [6]): lower proportion; proportion of TNF producing dendritic cells (mice challenged with DSS; [6]): decreased; regulatory CD4+ T cells in the colon (mice challenged with DSS; [6]): slight increase; proportion of splenic CD4+IL10+ T cells relative to vehicle-treated mice (NZB/W F1 mice; after 12 weeks): increased proportion; proteinuria relative to baseline on average (NZB/W F1 mice; at 12 weeks of treatment): slight improvement; proteinuria grade (NZB/W F1 mice; over 12 weeks): protected mice from the worsening; histological severity of disease in hind ankles (joint space, cartilage erosion, leukocytic infiltration, angiogenesis) ([4]; 2 mg/kg oral, relative to vehicle): reduced severity of disease; gene expression of CXCL1 within the synovium [4, 7]: reduced; gene expression of IL-1β within the synovium [4, 7]: reduced; gene expression of IL-6 within the synovium [4, 7]: reduced; ratio of TNF+ to IL10+ cells within CD4+ T cell fraction, inguinal lymph node ([4]; daily oral gavage, 3 weeks): decreased; ratio of TNF+ to IL10+ cells within myeloid cell fraction, inguinal lymph node ([4]; daily oral gavage, 3 weeks): decreased
Cn1cccc(NC(=O)c2ncc(-c3cccc(Oc4ccccc4)c3)[nH]2)c1=O [PX-07, N-(1-Methyl-2-oxo-1H-pyrid-3-yl)-5-(m-phenoxyphenyl)-1H-imidazole-2-carboxamide] | significant decrease at both tested concentrations | ~55 | ~80 | no difference from vehicle | no difference from vehicle | greatly suppressed | greatly suppressed | greatly suppressed | higher | slight increase | inhibited | significantly reduced | histological score of kidney damage (composite 0-9) ([3]; after 12 weeks of treatment): significantly reduced; proportion of CD1d+T2-MZP B cells in the spleen [5]: increased; proportion of T follicular helper cells (CD4+IL21+BCL6+) in the spleen [5]: decreased
O=C(Nc1ccc[nH]c1=O)c1ncc(-c2cccc(Oc3ccccc3)c2)[nH]1 [PX-08, N-(2-Oxo-1H-pyrid-3-yl)-5-(m-phenoxyphenyl)-1H-imidazole-2-carboxamide] | significant decrease at both tested concentrations | – | – | – | – | – | – | – | – | – | – | – | –
O=C(O)c1cccc(NC(=O)c2ncc(-c3cccc(Oc4ccccc4)c3)[nH]2)c1 [PX-09, m-[5-(m-Phenoxyphenyl)-1H-imidazol-2-ylcarbonylamino]benzoic acid] | significant decrease at both tested concentrations | – | – | – | – | – | – | – | – | – | – | – | –
